A short description of data set [1]: Nasal administration of diazepam and midazolam preparations in two healthy volunteers. Conditions: for Nasal Discomfort / Nasal Discomfort (maximum): subject self-rating, IN 5 mg dose, n = 2. The method, then: Approximately 0.5 ml (2.5 mg) was dripped into each nostril over a period of 30 seconds.
The conditions of data set [2]: cited from earlier work.
For data set [3] the following is noted: rectal, published data (Cloyd et al, Epilepsia 1998); cited from earlier work.
Data set [4] can be described thus: DZP permeation through blank filter. Conditions: S from 1 to 6, 30/70 GF/AB vehicle, blank filters.
A short description of data set [5]: Diffusion studies through silicone membranes (Franz diffusion cell). Conditions: for Steady State Flux / Time Lag / Transference: 75 μm silicone membrane.
Data set [6] can be described thus: Comparison of intranasal with published rectal diazepam concentration-time course.
Another data set concerns patients with SE. Conditions: intravenous, given within 30 minutes of the onset of SE; cited from earlier work.
The conditions of data set [7]: in vivo; cited from earlier work.
A short description of data set [8]: Lipid-solubility (octanol/water ratio) of benzodiazepines. Conditions: from Table 1.
The nature of the next data set: clinical. Conditions: human, plasma, inhaled or intranasal, 5 mg.
The conditions of data set [9]: cited from earlier work. The source holds these as a separate data set.
Another data set deals with MDCKII-WT cells. The method, then:
(§1) Maden Darby Canine Kidney II wild type (MDCKII-WT) cells were seeded at 43,000 cells/cm^2 on six-well polyester membrane inserts (Transwell®) with a pore size of 0.4 μm. Cells were maintained in Dulbecco's modified Eagle's medium supplemented with 10% fetal bovine serum and 1% penicillin and streptomycin at 37° C. in a humidified incubator with 5% CO2. Media were changed every other day, and cell monolayers were cultured for 4 days before use.
Viability of MDCKII-WT cells was measured by incubating the cells in suspension for 30, 60, and 120 min in various GF/buffer compositions at 37° C. Trypan blue dye was then added into the cell suspension, and incubated for 10 min. A sample was drawn from the suspension and spread on a hemocytometer, and counts of live (transparent) and dead (blue) cells were made.

The subject of data set [10] is MDCKII-WT cell monolayer. Conditions: 0-50% GF with assay buffer, over 30 min. On the procedure:
as §1

Data set [11] concerns MDCKII-WT cell monolayer.
In data set [12] the test system is MDCKII-WT cell monolayer. The following applies: GF 0 to 50 vol % in upstream vehicle.
Where [13] appears, read: human, blood, other: intranasal, 5 mg.
Setting [14] is: buccal, 5 mg commercial parenteral MDZ, 8 healthy volunteers.

Like-named read-outs stand apart in the source and are kept apart here. A value given as a limit tells only on which side of the number the result lay.

As for `CN1C(=O)CN=C(c2ccccc2)c2cc(Cl)ccc21` [DZP, diazepam], the “Nasal Discomfort” value in data set [1] is recorded as 1.5. For the same compound, in [1], the “Nasal Discomfort (maximum)” value is given as 6.8. In addition, the “time to peak concentrations” value in [2] (rectal, adults) was 15 to 45 min; in data set [2] (rectal, children), 5 to 10 min. Further, the “time to maximum concentration” value in data set [3] is 45 min; in data set [6] (nasal, 5 mg) it was 28 min. The “steady state flux as a function of degree of saturation S” value in data set [4] is listed as “increased linearly with increasing degree of saturation”; in data set [5] (S=0.5-6.25, 50:50 GF/water, silicone membrane), “increased nearly linearly with increasing degree of saturation”. Further, the “Steady State Flux” value in data set [5] (S=1, 30% GF) is reported as 0.823 ± 0.030 μg/(cm^2 · min); in [5] (S=1, 40% GF), 0.826 ± 0.019 μg/(cm^2 · min); in data set [5] (S=1, 50% GF), 0.824 ± 0.011 μg/(cm^2 · min); in data set [5] (S=3, 30% GF) it was 2.309 ± 0.070 μg/(cm^2 · min); in data set [5] (S=3, 40% GF), 2.310 ± 0.055 μg/(cm^2 · min); in [5] (S=3, 50% GF), 2.321 ± 0.095 μg/(cm^2 · min). For the same compound, the “Time Lag” value worked out at 1.876 ± 0.165 min in [5] (S=1, 30% GF); 1.793 ± 0.020 min in [5] (S=1, 40% GF); 1.842 ± 0.119 min in data set [5] (S=1, 50% GF); 1.806 ± 0.135 min in data set [5] (S=3, 30% GF); 1.787 ± 0.091 min in data set [5] (S=3, 40% GF); 1.755 ± 0.134 min in [5] (S=3, 50% GF). The Transference is given as 0.823 ± 0.030 μg/(cm^2 · min) in data set [5] (S=1, 30% GF); 0.826 ± 0.019 μg/(cm^2 · min) in [5] (S=1, 40% GF); 0.824 ± 0.011 μg/(cm^2 · min) in data set [5] (S=1, 50% GF); 0.770 ± 0.023 μg/(cm^2 · min) in data set [5] (S=3, 30% GF); 0.770 ± 0.018 μg/(cm^2 · min) in data set [5] (S=3, 40% GF); 0.774 ± 0.032 μg/(cm^2 · min) in [5] (S=3, 50% GF). In data set [6] (rectally, published data adjusted from 15 mg to 5 mg assuming linear pharmacokinetics), this compound displayed a peak concentration of 128 ng/mL.

Regarding `O=C1Nc2ccc(Cl)cc2C(c2ccccc2Cl)=NC1O` (stereo not shown) [LZP, lorazepam], the effective in patients with patients with SE is on record as 60-80%. In data set [7], the “Elimination T½” value is 480 to 1500 min and the “First-pass Effect” value is recorded as “Low”. The “time of peak plasma concentrations” value in data set [2] (rectal) is 75 min. Also, the “lipid-solubility relative to DZP and MDZ” value in data set [8] is “⅕”.

Usually Tmax stands for the time at which the peak concentration occurs. Broadly, the bioavailability is dose-corrected exposure relative to a reference, in per cent. One may read the Cmax as the highest concentration seen after dosing. As to `Cc1ncc2n1-c1ccc(Cl)cc1C(c1ccccc1F)=NC2` [MDZ, midazolam], the “nasal discomfort (in words)” value in data set [1] (IN commercial formulations: DZP solvents 40% propylene glycol and 10% ethanol, MDZ pH=3) was “significant discomfort”. For the same compound, in data set [1] (setting [13]), the Tmax was 20 min and the bioavailability was found to be 67.5%. Besides, in [1], the “Nasal Discomfort” value is on record as 1.0 and the “Nasal Discomfort (maximum)” value came out at 6.0. In the data set “clinical”, this compound came in with a Cmax of 64.6 ng/mL and a bioavailability of 97.9%. Besides, the “Lipid-solubility (Octanol/Water Ratio)” value in data set [9] (at pH = 3) is “at pH = 3: 34”. The “Lipid-solubility (Octanol/Water Ratio)” value in data set [9] (at pH = 7.5) is “at pH = 7.5: 475”. In addition, in data set [7], the “Elimination T½” value is 30 to 240 min and the “First-pass Effect” value is “High”. For the same compound, the “time to pharmacological effect comparable to IV diazepam” value in data set [2] (IM injection) is recorded as at most 15 minutes. Moreover, the “time to peak serum concentrations” value in data set [2] (IM) is 20 to 30 min. In addition, in data set [2] (setting [14]), the average bioavailability is reported as 75% and the “time to peak serum concentrations” value is 15 to 90 min. Further, the bioavailability in data set [2] (rectal) was 15-30 % of a dose.

For “tetrahydrofurfuryl alcohol polyethyleneglycol ether [GF]”, the viable cells result with MDCKII-WT cells (30 min treatment, GF up to 50 vol %) is reported as “more than 90%”. Moreover, in the data set with MDCKII-WT cells (1 h exposure, GF compositions above 30%), the cell viability entry is given as “marked decease in cell viability”. For the same compound, the lethality with MDCKII-WT cells (2 h exposure, GF compositions equal to or more than 20%) amounted to 100%. Also, the TEER values in the data set with MDCKII-WT cell monolayer [10] is reported as > 100 Ω·cm2. Also, the “effect of GF content on permeability of mannitol” value in the data set with MDCKII-WT cell monolayer [11] (GF/AB cosolvent mixtures, 0 to 50 vol % GF) is “permeability of mannitol increases”. For the same compound, the “percentage mass transported of mannitol” value in the data set on MDCKII-WT cell monolayer [11] (all GF/AB cosolvent systems (0-50 vol % GF), t=30 min) was “below 5%”. For the same compound, the “effect of GF content on transference of DZP through MDCK cell monolayer” value in the data set on MDCKII-WT cell monolayer [12] is “transference increased with increasing GF content”.

Source of the values: patent US20070208011A1, “Supersaturated Benzodiazepine Solutions and Their Delivery” (priority 2005, published 2007).
